Legend:
[1] = tested on: myoblast cell preparation; assay: 5-AZA concentration and medium finding in myoblast cell preparation
Source text: The myoblast cell preparation may be cultured in a proliferation medium in the presence of a DNA methyltransferase inhibitor, such as 5-AZA. A DNA methyltransferase inhibitor may be introduced while the myoblast cell preparation is being developed in the proliferation medium. For instance, a DNA methyltransferase inhibitor may be introduced once the myoblast cell preparation is at 50-80% cell confluence by visual inspection. A higher confluence percentage or density may be appropriate, so long as the confluence is not so high that the cells become overcrowded or grow in multiple layers, resulting in spontaneous cell fusion and/or cell death. The DNA methyltransferase inhibitor may be introduced earlier, for instance, at the same time the isolated satellite cells are added to the proliferation medium. […] Concentrations of DNA methyltransferase inhibitor used may vary. For example, the myoblast cell preparation may be cultured in proliferation medium in the presence of 5 μM of 5-AZA. […] The myoblast cell preparation may be cultured in the presence of a DNA methyltransferase inhibitor for a period of time. One appropriate period of time using 5 μM of 5-AZA is 24 hours. As few as 6 hours may be appropriate using 5 μM of 5-AZA.

[2] = tested on: CP patient derived myoblast cells; assay: Myoblast fusion and myotube formation, immunostaining and Fusion Index; type: cell-based, human; settings: 5 μM, 24 hours pretreatment, 42 hours differentiation
Source text: Myotubes were differentiated using the following methods. Once the appropriate level of cell confluence of 50-80% was obtained for the myoblast cell preparation, fusion and differentiation of myoblasts into myotubes was promoted by switching from a high-serum medium to a low-serum differentiation medium. […] Specifically, the high-serum proliferation medium was made of Ham's F10 medium (Corning Life Sciences, Tewksbury, Mass.) combined with 20% Fetal Bovine Serum (“FBS”) (Gibco brand, Thermo Fischer Scientific, Waltham, Mass.) 10 mg/ml streptomycin, and 100 units/ml penicillin (Gibco), human recombinant bFGF (5 ng/ml) (Becton Dickenson). […] Cell preparations cultured in the low-serum differentiation medium may be analyzed for myotube formation starting from about 24 hours to about 6 weeks after switching from the high-serum to the low-serum medium.
For visual and quantitative analysis by immunostaining, the isolated satellite cell-derived myoblast cell preparations were treated for immunostaining. […] Fluorescence microscopy was performed using an epifluorescence or confocal microscope using the 20× air objective, the 40×, or 63× oil immersion objective and zoom rates between 1 and 3 in sequential scanning mode. […]

[3] = tested on: CP and TD myoblast preparations; assay: Cell doubling time, xCELLigence RTCA DP; type: cell-based, human; settings: 5 μM, 24 hours; FIG. 9B
Experimental: FIG. 9B. A cell impedance-measuring xCELLigence RTCA DP instrument was used to quantify rates of “cell doubling time” (a measurement of cell proliferation) in CP and TD myoblast preparations, treated and non-treated with 5-AZA, as illustrated in FIG. 9B. Proliferating myoblasts were treated with 5 μM 5-AZA (Sigma-Aldrich) for 24 hours to induce DNA hypomethylation. Other cell preparations were not treated with 5-AZA to serve as a control. Following treatment, myoblasts were harvested from exponential growth phase cultures by a standardized detachment procedure using 0.05% Trypsin-EDTA and counted. […] Plates were locked in the RTCA DP device in the incubator and the impedance value of each well was automatically monitored by the xCELLigence system and expressed as a Cell Index value (CI). […] CI was recorded every 15 min for the entirety of the period. Cell doubling time was calculated from the exponential phase of the growth curve generated by the CI values using the supplied RTCA software.
A cell impedance-measuring xCELLigence RTCA DP instrument was used to quantify rates of “cell doubling time” (a measurement of cell proliferation) in CP and TD myoblast preparations, treated and non-treated with 5-AZA, as illustrated in FIG. 9B. […] Following treatment, myoblasts were harvested from exponential growth phase cultures by a standardized detachment procedure using 0.05% Trypsin-EDTA and counted. […]

[4] = tested on: C2C12 myoblasts; settings: cited from earlier work
[5] = 5 μM for 3 days (Montesano et al.)

SMILES: Nc1ncn([C@@H]2O[C@H](CO)[C@@H](O)[C@H]2O)c(=O)n1 [5-AZA, 5-azacytidine]
- myotube growth ([1]; 0.5 μM of 5-AZA): not sufficiently concentrated to cause appropriate myotube growth
- death of the cells ([1]; 50 μM of 5-AZA): causes the death of the cells in the myoblast cell preparation
- concentrations lethal to cells ([1]; human): ≥ 50 µM
- myoblast fusion and myotube formation, morphologically ([2]; FIG. 4B): sufficient to partially restore myoblast fusion and myotube formation
- myoblast fusion and myotube formation, quantitatively (Fusion Index) ([2]; FIG. 4C): sufficient to partially restore myoblast fusion and myotube formation
- cell doubling time [3]: resulted in similar myoblast cell doubling times between CP and TD myoblasts
- DNA methylation and differentiation [4, 5]: induced DNA hypomethylation and improved differentiation of C2C12 myoblasts
- cytotoxicity [4, 5]: without overt signs of cytotoxicity
- muscle-specific gene expression, myogenesis and myotube formation ([4]; mouse-derived C2C12 muscle cell lines): promoted expression of muscle-specific genes, enhanced myogenesis and myotube formation

From US20190112580A1, “METHODS FOR TREATING CO[…] AND RELATED CULTURED CELLS” (priority 2017, published 2019)
